Where a SMILES comes first, the peptide text is derived from it. Bridges are numbered along the chain shown (N, C = ends).
Target: human nAChR (hnAChR α1/β1/γ/ε-HEK 293 Recombinant Cell Line) (Homo sapiens, UniProt P02708+Q04844+Q07001)
Test: cell-based

human nAChR (hnAChR α1/β1/γ/ε-HEK 293 Recombinant Cell Line), sequence (P02708 whole entry, looked up): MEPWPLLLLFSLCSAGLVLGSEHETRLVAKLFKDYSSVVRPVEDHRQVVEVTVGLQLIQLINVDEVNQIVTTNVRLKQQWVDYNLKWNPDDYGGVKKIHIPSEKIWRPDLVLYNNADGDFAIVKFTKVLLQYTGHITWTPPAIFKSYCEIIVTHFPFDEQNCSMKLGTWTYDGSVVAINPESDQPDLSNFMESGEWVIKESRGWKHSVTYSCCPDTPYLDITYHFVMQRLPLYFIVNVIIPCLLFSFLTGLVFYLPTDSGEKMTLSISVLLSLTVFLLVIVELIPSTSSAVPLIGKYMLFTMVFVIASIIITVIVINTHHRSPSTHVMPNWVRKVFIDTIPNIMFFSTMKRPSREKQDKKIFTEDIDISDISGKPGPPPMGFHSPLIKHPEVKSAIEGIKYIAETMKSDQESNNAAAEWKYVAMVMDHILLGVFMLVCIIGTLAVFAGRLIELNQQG
human nAChR (hnAChR α1/β1/γ/ε-HEK 293 Recombinant Cell Line), sequence (Q04844 whole entry, looked up): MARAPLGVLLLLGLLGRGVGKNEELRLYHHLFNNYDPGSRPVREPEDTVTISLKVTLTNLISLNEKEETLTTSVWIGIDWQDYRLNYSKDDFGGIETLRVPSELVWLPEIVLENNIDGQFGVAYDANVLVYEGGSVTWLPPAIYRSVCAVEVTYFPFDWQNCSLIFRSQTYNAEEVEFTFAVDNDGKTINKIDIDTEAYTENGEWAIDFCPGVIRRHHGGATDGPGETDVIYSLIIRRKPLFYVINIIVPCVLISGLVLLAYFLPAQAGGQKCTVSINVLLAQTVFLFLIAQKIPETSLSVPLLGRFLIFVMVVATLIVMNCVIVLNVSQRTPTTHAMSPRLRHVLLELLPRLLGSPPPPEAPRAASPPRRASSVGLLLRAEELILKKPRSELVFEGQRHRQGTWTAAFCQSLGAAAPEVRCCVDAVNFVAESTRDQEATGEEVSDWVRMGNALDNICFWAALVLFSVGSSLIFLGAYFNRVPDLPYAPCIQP
human nAChR (hnAChR α1/β1/γ/ε-HEK 293 Recombinant Cell Line), sequence (Q07001 whole entry, looked up): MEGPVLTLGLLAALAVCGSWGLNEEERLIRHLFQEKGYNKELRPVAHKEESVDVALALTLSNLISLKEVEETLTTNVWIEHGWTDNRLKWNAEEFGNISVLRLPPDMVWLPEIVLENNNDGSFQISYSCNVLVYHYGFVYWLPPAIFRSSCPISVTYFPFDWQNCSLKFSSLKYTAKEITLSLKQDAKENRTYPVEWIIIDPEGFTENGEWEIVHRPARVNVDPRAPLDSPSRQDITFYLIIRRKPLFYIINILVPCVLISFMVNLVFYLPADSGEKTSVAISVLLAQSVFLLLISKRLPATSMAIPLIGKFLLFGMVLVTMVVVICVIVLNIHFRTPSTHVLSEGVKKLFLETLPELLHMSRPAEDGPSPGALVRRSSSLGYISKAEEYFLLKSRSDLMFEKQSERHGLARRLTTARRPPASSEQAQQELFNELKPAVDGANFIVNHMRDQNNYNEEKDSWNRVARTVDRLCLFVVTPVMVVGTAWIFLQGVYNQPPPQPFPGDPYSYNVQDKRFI

SMILES | IC50
CC(=O)N[C@H]1CSSC[C@@H]2NC(=O)[C@H](C)NC(=O)[C@@H]3CCCN3C(=O)[C@H](CC(N)=O)NC(=O)[C@H](CSSC[C@@H](C(N)=O)NC(=O)[C@H](CO)NC(=O)[C@H](Cc3ccc(O)cc3)NC(=O)[C@H](CC(N)=O)NC(=O)[C@H](CCCCN)NC(=O)CNC2=O)NC1=O [SEQ ID NO: 60, Ac-Cys-Cys-Asn-Pro-Ala-Cys-Gly-Lys-Asn-Tyr-Ser-Cys-NH2] (Ac-CCNPACGKNYSC-NH2; disulfide 1-6, 2-12) | > 100 nM
CC(=O)N[C@H]1CSSC[C@@H]2NC(=O)[C@H](C)NC(=O)[C@@H]3CCCN3C(=O)[C@H](CC(N)=O)NC(=O)[C@H](CSSC[C@@H](C(N)=O)NC(=O)[C@H](CCCCN)NC(=O)[C@H](Cc3ccc(O)cc3)NC(=O)[C@H](CC(N)=O)NC(=O)[C@H](CCCCN)NC(=O)CNC2=O)NC1=O [SEQ ID NO: 62, Ac-Cys-Cys-Asn-Pro-Ala-Cys-Gly-Lys-Asn-Tyr-Lys-Cys-NH2] (Ac-CCNPACGKNYKC-NH2; disulfide 1-6, 2-12) | > 100 nM

Reference: patent publication US20240076314A1 (priority 2020, published 2024)
